Reference: patent publication US9725445B2, “Cycloalkyl nitrile pyrazolo pyridones as Janus kinase inhibitors” (Merck Sharp & Dohme Corp., priority 2013, dated 2017)

Tests used:
JAK2 = JAK2 (Homo sapiens (Human), UniProt O60674); test: Jak biochemical HTRF assay, JAK2; conditions: HTRF biochemical assay, recombinant GST-tagged catalytic domain; read-out: JAK2 IC50
Protocol: Jak Biochemical HTRF Assay Protocol
The ability of compounds to inhibit the activity of JAK1, JAK2, JAK3, and Tyk2 was measured using a recombinant purified GST-tagged catalytic domain for each enzyme (Invitrogen JAK1 #M4290, JAK2 #M4290, JAK3 #M4290, Tyk2 #M4290) in an HTRF format biochemical assay. […] The basic assay protocol is as follows: First, 250 nL of diluted compounds in DMSO were dispensed into the wells of a dry 384-well Black plate (Greiner #781076) using a Labcyte Echo 555 acoustic dispenser. Subsequent reagent additions employed an Agilent Bravo. […] After equilibration, 2 μL of 10×ATP in 1× assay buffer was added to initiate the kinase reaction and the plates were shaken and then incubated at room temperature for 120 minutes. […] Plates were shaken and centrifuged and then incubated 60 minutes at room temperature and then read on a Perkin Elmer Envision (λex=337 nm, λem=665 and 615 nm, TRF delay time=20 μs). HTRF signal=10,000*665 nm reading/615 nm reading. After normalization to untreated controls, the percent inhibition of the HTRF signal at each compound concentration was calculated. The plot of percent inhibition versus the log of compound concentration was fit with a 4-parameter dose response equation to calculate IC50 values.
Final Reaction Conditions were:
Examples of the instant invention were evaluated in JAK1 and JAK2 in vitro binding assays.

JAK1 = JAK1 (Homo sapiens (Human), UniProt P23458); test: Jak biochemical HTRF assay, JAK1; conditions: HTRF biochemical assay, recombinant GST-tagged catalytic domain; read-out: JAK1 IC50
Sequence of JAK1 (P23458 875-1153): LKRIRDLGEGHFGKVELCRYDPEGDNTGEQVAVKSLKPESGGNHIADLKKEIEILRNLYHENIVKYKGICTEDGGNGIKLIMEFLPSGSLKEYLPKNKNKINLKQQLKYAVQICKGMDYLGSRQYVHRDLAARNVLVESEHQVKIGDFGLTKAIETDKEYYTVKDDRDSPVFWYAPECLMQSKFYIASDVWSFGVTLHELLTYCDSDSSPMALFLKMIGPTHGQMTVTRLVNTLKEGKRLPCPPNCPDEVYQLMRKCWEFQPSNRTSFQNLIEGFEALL

Sequence of JAK2 (O60674 849-1124): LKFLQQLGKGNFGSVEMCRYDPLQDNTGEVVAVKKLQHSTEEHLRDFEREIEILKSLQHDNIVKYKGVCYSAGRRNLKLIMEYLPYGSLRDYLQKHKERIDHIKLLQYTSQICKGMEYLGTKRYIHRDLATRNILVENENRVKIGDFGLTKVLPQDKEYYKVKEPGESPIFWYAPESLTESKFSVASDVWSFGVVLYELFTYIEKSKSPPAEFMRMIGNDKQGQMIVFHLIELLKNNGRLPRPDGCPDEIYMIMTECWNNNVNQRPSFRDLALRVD

Structure (SMILES) | IC50 (JAK2) | IC50 (JAK1)
C[C@H](N[C@H]1CC[C@H](n2nc(Nc3ccc(Cl)c(F)c3)c3c(=O)[nH]ccc32)[C@@H](C#N)C1)C1CC1 [Example 5-6, (1S,2S,5S)-2-(3-((4-chloro-3-fluorophenyl)amino)-4-oxo-4,5-dihydro-1H-pyrazolo[4,3-c]pyridin-1-yl)-5-(((S)-1-cyclopropylethyl)amino)cyclohexanecarbonitrile] | 55 nM | 
CC(C)(C)S(=O)(=O)c1ccc(Nc2nn([C@@H]3CC(F)(F)C[C@@H]3C#N)c3cc[nH]c(=O)c23)cc1 (single isomer, unassigned) [Example 22-2, (1S,2R or 1R,2S)-2-(3-((4-(tert-Butylsulfonyl)phenyl)amino)-4-oxo-4,5-dihydro-1H-pyrazolo[4,3-c]pyridin-1-yl)-4,4-difluorocyclopentanecarbonitrile] | 21 nM | 
N#C[C@H]1CCCC[C@@H]1n1nc(Nc2ccc3c(c2)C(O)C2(CCCCC2)S3(=O)=O)c2c(=O)[nH]ccc21 (single isomer, unassigned) [Example 3-174, (1S,2S)-2-(3-{[(3S or 3R)-3-hydroxy-1,1-dioxido-3H-spiro[1-benzothiophene-2,1′-cyclohexan]-5-yl]amino}-4-oxo-4,5-dihydro-1H-pyrazolo[4,3-c]pyridin-1-yl)cyclohexanecarbonitrile] | 0.49 nM | 
CC(C)S(=N)(=O)c1ccc(Nc2nn(C3CCC[C@@H]3C#N)c3cc[nH]c(=O)c23)cc1 (single isomer, unassigned) [Example 3-109, (1S,2S)-2-[3-({4-[(S or R)-S-(1-methylethyl)sulfonimidoyl]phenyl}amino)-4-oxo-4,5-dihydro-1H-pyrazolo[4,3-c]pyridin-1-yl]cyclopentanecarbonitrile] | 0.47 nM | 
CC(C)C(c1ccc(Nc2nn([C@H]3CCCC[C@@H]3C#N)c3cc[nH]c(=O)c23)cc1)n1ccnn1 (single isomer, unassigned) [Example 15-24, (1S,2S)-2-[3-({4-[(1S or 1R)-2-methyl-1-(1H-1,2,3-triazol-1-yl)propyl]phenyl}amino)-4-oxo-4,5-dihydro-1H-pyrazolo[4,3-c]pyridin-1-yl]cyclohexanecarbonitrile] | 0.27 nM | 
N#C[C@@H]1CCCCC[C@H]1n1nc(Nc2ccc3c(c2)CN(C2CCCC2)C3=O)c2c(=O)[nH]ccc21 (single isomer, unassigned) [Example 15-52, (1R,2R or 1S,2S)-2-{3-[(2-cyclopentyl-1-oxo-2,3-dihydro-1H-isoindol-5-yl)amino]-4-oxo-4,5-dihydro-1H-pyrazolo[4,3-c]pyridin-1-yl}cycloheptanecarbonitrile] | 0.3 nM | 
N#C[C@H]1C[C@H](N2CCC2)CC[C@@H]1n1nc(Nc2ccc(Cl)cc2)c2c(=O)[nH]ccc21 [Example 5-17, (1S,2S,5R)-5-(azetidin-1-yl)-2-(3-((4-chlorophenyl)amino)-4-oxo-4,5-dihydro-1H-pyrazolo[4,3-c]pyridin-1-yl)cyclohexanecarbonitrile] | 33 nM | 
CC(O)(CCO)c1cc(Nc2nn([C@H]3CCCC[C@@H]3C#N)c3cc[nH]c(=O)c23)ccc1S(C)(=O)=O (stereo partly drawn) [Example 3-86, (1S,2S)-2-(3-{[3-(1,3-dihydroxy-1-methylpropyl)-4-(methylsulfonyl)phenyl]amino}-4-oxo-4,5-dihydro-1H-pyrazolo[4,3-c]pyridin-1-yl)cyclohexanecarbonitrile] | 7.6 nM | 
CC(C)(C)S(=O)(=O)c1ccc(Nc2nn([C@H]3CC(F)(F)C[C@@H]3C#N)c3cc[nH]c(=O)c23)cc1 (single isomer, unassigned) [Example 22-4, (1S,2S or 1R,2R)-2-(3-{[4-(tert-butylsulfonyl)phenyl]amino}-4-oxo-4,5-dihydro-1H-pyrazolo[4,3-c]pyridin-1-yl)-4,4-difluorocyclopentanecarbonitrile] | 0.35 nM | 
CC(C)C(c1ccc(Nc2nn([C@H]3CCCC[C@@H]3C#N)c3cc[nH]c(=O)c23)cc1)n1ccnn1 (single isomer, unassigned) [Example 15-23, (1S,2S)-2-[3-({4-[(1R or 1S)-2-methyl-1-(1H-1,2,3-triazol-1-yl)propyl]phenyl}amino)-4-oxo-4,5-dihydro-1H-pyrazolo[4,3-c]pyridin-1-yl]cyclohexanecarbonitrile] | 0.25 nM | 
N#C[C@H]1CCCC[C@@H]1n1nc(Nc2ccc(C(O)C(F)F)cc2)c2c(=O)[nH]ccc21 (mixture of isomers) [Example 10-1, Racemic-(1S,2S)-2-(3-((4-(2,2-difluoro-1-hydroxyethyl)phenyl)amino)-4-oxo-4,5-dihydro-1H-pyrazolo[4,3-c]pyridin-1-yl)cyclohexanecarbonitrile] | 0.61 nM | 
CC(C)(C)S(=O)(=O)c1ccc(Nc2nn([C@@H]3CC(F)(F)C[C@H]3C#N)c3cc[nH]c(=O)c23)cc1 (single isomer, unassigned) [Example 22-3, (1R,2R or 1S,2S)-2-(3-{[4-(tert-butylsulfonyl)phenyl]amino}-4-oxo-4,5-dihydro-1H-pyrazolo[4,3-c]pyridin-1-yl)-4,4-difluorocyclopentanecarbonitrile] | 17 nM | 
CC(C)NC(c1ccc(Nc2nn([C@H]3CCC[C@@H]3C#N)c3cc[nH]c(=O)c23)cc1)C(F)(F)F (single isomer, unassigned) [Example 3-116, (1S,2S)-2-{4-oxo-3-[(4-{(1S or 1R)-2,2,2-trifluoro-1-[(1-methylethyl)amino]ethyl}phenyl)amino]-4,5-dihydro-1H-pyrazolo[4,3-c]pyridin-1-yl}cyclopentanecarbonitrile] | 0.2 nM | 
CC(O)(c1ccc(Nc2nn([C@H]3CCC[C@@H]3C#N)c3cc[nH]c(=O)c23)cc1)C(F)(F)F (single isomer, unassigned) [Example 3-139, (1S,2S)-2-[4-oxo-3-({4-[(1R or 1S)-2,2,2-trifluoro-1-hydroxy-1-methylethyl]phenyl}amino)-4,5-dihydro-1H-pyrazolo[4,3-c]pyridin-1-yl]cyclopentanecarbonitrile] | 0.35 nM | 
CC(O)(c1ccc(Nc2nn([C@H]3CCC[C@@H]3C#N)c3cc[nH]c(=O)c23)cc1)C(F)(F)F (single isomer, unassigned) [Example 3-138, (1S,2S)-2-[4-oxo-3-({4-[(1R or 1S)-2,2,2-trifluoro-1-hydroxy-1-methylethyl]phenyl}amino)-4,5-dihydro-1H-pyrazolo[4,3-c]pyridin-1-yl]cyclopentanecarbonitrile] | 0.66 nM | 
C[C@H](N[C@@H]1CC[C@H](n2nc(Nc3ccc(Cl)c(F)c3)c3c(=O)[nH]ccc32)[C@@H](C#N)C1)C1CC1 [Example 5-5, (1S,2S,5R)-2-(3-((4-chloro-3-fluorophenyl)amino)-4-oxo-4,5-dihydro-1H-pyrazolo[4,3-c]pyridin-1-yl)-5-(((S)-1-cyclopropylethyl)amino)cyclohexanecarbonitrile] | 113 nM | 
N#C[C@H]1CCCCC[C@@H]1n1nc(Nc2ccc3c(c2)CN(C2CCCC2)C3=O)c2c(=O)[nH]ccc21 (single isomer, unassigned) [Example 15-50, (1S,2S or 1R,2R)-2-{3-[(2-cyclopentyl-1-oxo-2,3-dihydro-1H-isoindol-5-yl)amino]-4-oxo-4,5-dihydro-1H-pyrazolo[4,3-c]pyridin-1-yl}cycloheptanecarbonitrile] | 14 nM | 
N#C[C@H]1CCCC[C@@H]1n1nc(Nc2ccc3c(c2)CCNC3)c2c(=O)[nH]ccc21 [Example 3-156, (1S,2S)-2-[4-oxo-3-(1,2,3,4-tetrahydroisoquinolin-6-ylamino)-4,5-dihydro-1H-pyrazolo[4,3-c]pyridin-1-yl]cyclohexanecarbonitrile] | 2.6 nM | 
N#C[C@H]1C[C@@H](N2CCC2)CC[C@@H]1n1nc(Nc2ccc(Cl)cc2)c2c(=O)[nH]ccc21 [Example 5-18, (1S,2S,5S)-5-(azetidin-1-yl)-2-(3-((4-chlorophenyl)amino)-4-oxo-4,5-dihydro-1H-pyrazolo[4,3-c]pyridin-1-yl)cyclohexanecarbonitrile] | 13 nM | 
N#C[C@H]1CCCC[C@@H]1n1nc(Nc2ccc3c(c2)C(O)C2(CCCCC2)S3(=O)=O)c2c(=O)[nH]ccc21 (single isomer, unassigned) [Example 3-175, (1S,2S)-2-(3-{[(3R or 3S)-3-hydroxy-1,1-dioxido-3H-spiro[1-benzothiophene-2,1′-cyclohexan]-5-yl]amino}-4-oxo-4,5-dihydro-1H-pyrazolo[4,3-c]pyridin-1-yl)cyclohexanecarbonitrile] | 0.26 nM | 
CN(C)C(c1ccc(Nc2nn([C@H]3CCCC[C@@H]3C#N)c3cc[nH]c(=O)c23)cc1)C(F)(F)F (single isomer, unassigned) [Example 9-4, (1S,2S)-2-(3-(4-((R or S)-1-(Dimethylamino)-2,2,2-trifluoroethyl)phenylamino)-4-oxo-4,5-dihydropyrazolo[4,3-c]pyridin-1-yl)cyclohexanecarbonitrile] |  | 0.11 nM
N#C[C@H]1CCCC[C@@H]1n1nc(Nc2ccc3c(c2)CC2(CC2)C3(O)C(F)(F)F)c2c(=O)[nH]ccc21 (single isomer, unassigned) [Example 3-123, (1S,2S)-2-(3-(((R or S)-1′-hydroxy-1′-(trifluoromethyl)-1′,3′-dihydrospiro[cyclopropane-1,2′-inden]-5′-yl)amino)-4-oxo-4,5-dihydro-1H-pyrazolo[4,3-c]pyridin-1-yl)cyclohexanecarbonitrile] |  | 0.18 nM
